Measurements from PMC10120512, “Benzenesulfonamide derivatives as Vibrio cholerae carbonic anhydrases inhibitors: a computational-aided insight in the structural rigidity-activity relationships” (Journal of Enzyme Inhibition and Medicinal Chemistry, 2023).

Columns and labels:
VchβCA = VchβCA (Vibrio cholerae, UniProt A0A086SLX8); assay: biochemical
VchαCA [1] = assay: biochemical; format: biochemical; conditions: for SI [ KI hCA I/KI VchαCA ]: selectivity index hCA I over VchαCA; for SI [ KI hCA II/KI VchαCA ]: selectivity index hCA II over VchαCA
VchαCA [2] = biological target: VchαCA (Vibrio cholerae, UniProt Q9KMP6); assay: biochemical; format: biochemical
Sequence of VchαCA (Vibrio cholerae, UniProt Q9KMP6) (Q9KMP6 entry or part of it): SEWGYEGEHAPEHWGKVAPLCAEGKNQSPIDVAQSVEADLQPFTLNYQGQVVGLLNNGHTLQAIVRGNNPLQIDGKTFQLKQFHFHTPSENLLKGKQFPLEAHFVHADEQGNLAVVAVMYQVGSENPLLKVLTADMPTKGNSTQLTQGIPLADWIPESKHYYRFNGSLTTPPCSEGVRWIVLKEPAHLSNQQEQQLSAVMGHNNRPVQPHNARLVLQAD

VchγCA = VchγCA (Vibrio cholerae, UniProt Q9KVT1); assay: biochemical
Sequence of VchγCA (Q9KVT1 1-184): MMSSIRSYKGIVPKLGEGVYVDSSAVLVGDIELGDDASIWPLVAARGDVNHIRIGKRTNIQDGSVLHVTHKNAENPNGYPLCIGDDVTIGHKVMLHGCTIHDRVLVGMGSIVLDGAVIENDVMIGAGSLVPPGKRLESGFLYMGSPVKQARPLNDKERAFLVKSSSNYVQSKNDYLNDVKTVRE

[3] = system: clinical isolates of V. cholerae (SI-Vc22, SI-Vc71, SI-Vc912); assay: Direct antibacterial activity, agar diffusion method; format: cell-based; conditions: for growth inhibition against at least one of the clinical isolates: 2 μL spot, 37 °C, 24 h; for inhibition zone diameter: all the isolates, data not shown; as to all read-outs here: test concentration or dose not given here

Sequence of VchβCA (A0A086SLX8 entry or part of it): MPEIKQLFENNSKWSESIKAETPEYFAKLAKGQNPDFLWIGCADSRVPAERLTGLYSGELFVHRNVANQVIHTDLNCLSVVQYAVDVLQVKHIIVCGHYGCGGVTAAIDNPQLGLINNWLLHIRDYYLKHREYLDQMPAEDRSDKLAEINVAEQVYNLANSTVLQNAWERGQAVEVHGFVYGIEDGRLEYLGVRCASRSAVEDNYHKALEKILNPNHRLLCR

SMILES | Ki (VchβCA) | SI [ KI hCA I/KI VchαCA ] (VchαCA [1]) | SI [ KI hCA II/KI VchαCA ] (VchαCA [1]) | Ki (VchαCA [2]) | Ki (VchγCA) | growth inhibition against at least one of the clinical isolates [3] | inhibition zone diameter [3] | SI, selectivity with respect to human isoenzymes (VchαCA [1]; VchαCA versus human isoenzymes (abstract))
NS(=O)(=O)c1ccc(NCCNc2ccccc2)cc1 [1a] | 18.3 µM | 0.3 | 0.1 | 0.0781 µM | – | – | – | –
NS(=O)(=O)c1ccc(NC(=O)CNc2ccccc2)cc1 [1b] | 17.7 µM | 1.2 | 0.1 | 0.053 µM | 49.4 µM | – | – | –
NS(=O)(=O)c1ccc(N2CCN(c3ccccc3)C2=O)cc1 [1c] | 134 µM | 7.7 | 0.6 | 0.0071 µM | 5 µM | – | – | –
Cc1ccc(NCCNc2ccc(S(N)(=O)=O)cc2)cc1 [2a] | 16.8 µM | 0.2 | 0.1 | 0.0431 µM | 39.9 µM | – | – | –
Cc1ccc(NCC(=O)Nc2ccc(S(N)(=O)=O)cc2)cc1 [2b] | 97 µM | 0.2 | 1.9 | 0.0431 µM | 82.6 µM | – | – | –
Cc1ccc(N2CCN(c3ccc(S(N)(=O)=O)cc3)C2=O)cc1 [2c] | 83.6 µM | 0.60 | 0.14 | 0.027 µM | 3.5 µM | – | – | –
NS(=O)(=O)c1ccc(NCCNc2ccc(Cl)cc2)cc1 [3a] | 53.8 µM | 1.4 | 1.7 | 0.0274 µM | – | – | – | –
NS(=O)(=O)c1ccc(NC(=O)CNc2ccc(Cl)cc2)cc1 [3b] | 116 µM | 0.3 | 0.1 | 0.066 µM | 86.9 µM | moderate growth inhibition | – | –
NS(=O)(=O)c1ccc(N2CCN(c3ccc(Cl)cc3)C2=O)cc1 [3c] | 106 µM | 4.1 | 1.0 | 0.047 µM | 50.2 µM | – | – | –
NS(=O)(=O)c1ccc(NCCNc2ccc(I)cc2)cc1 [4a] | 136 µM | 12.1 | 9.9 | 0.065 µM | – | – | – | –
NS(=O)(=O)c1ccc(NC(=O)CNc2ccc(I)cc2)cc1 [4b] | 157 µM | – | – | 0.0228 µM | 72.5 µM | – | – | –
NS(=O)(=O)c1ccc(N2CCN(c3ccc(I)cc3)C2=O)cc1 [4c] | 116 µM | 7.1 | 1.0 | 0.013 µM | 72.2 µM | – | 3–5 mm | –
NS(=O)(=O)c1ccc(NCCNc2ccccc2Br)cc1 [5a] | 89.2 µM | 14.7 | 14.2 | 0.0641 µM | – | – | – | –
NS(=O)(=O)c1ccc(NC(=O)CNc2ccccc2Br)cc1 [5b] | 47.4 µM | – | – | 0.062 µM | 87.7 µM | – | – | –
NS(=O)(=O)c1ccc(N2CCN(c3ccccc3Br)C2=O)cc1 [5c] | – | 0.1 | 0.1 | 0.0472 µM | 73.2 µM | – | – | –
NS(=O)(=O)c1ccc(NCCNc2ccccc2F)cc1 [6a] | 101 µM | 2.1 | 0.2 | 0.0362 µM | 73.7 µM | – | – | –
NS(=O)(=O)c1ccc(NC(=O)CNc2ccccc2F)cc1 [6b] | 51.4 µM | 0.2 | 0.1 | 0.079 µM | 93.1 µM | – | – | –
NS(=O)(=O)c1ccc(N2CCN(c3ccccc3F)C2=O)cc1 [6c] | – | – | – | 0.0097 µM | 82.8 µM | – | 3–5 mm | –
Cc1cccc(NCCNc2ccc(S(N)(=O)=O)cc2)n1 [7a] | 19 µM | 2.4 | 0.9 | 0.037 µM | 69.8 µM | – | – | –
Cc1cccc(NCC(=O)Nc2ccc(S(N)(=O)=O)cc2)n1 [7b] | 73.1 µM | 0.9 | 0.3 | 0.017 µM | 59.8 µM | – | – | –
Cc1cccc(N2CCN(c3ccc(S(N)(=O)=O)cc3)C2=O)n1 [7c] | 122 µM | 5.0 | 0.7 | 0.011 µM | 80.2 µM | – | – | –
NS(=O)(=O)c1ccc(NCCNCc2ccccc2)cc1 [8a] | 12.4 µM | 7.4 | 1.4 | 0.023 µM | 52.7 µM | – | – | –
NS(=O)(=O)c1ccc(NC(=O)CNCc2ccccc2)cc1 [8b] | 53.2 µM | – | – | 0.0614 µM | – | – | – | –

SMILES | Ki (VchβCA) | SI [ KI hCA I/KI VchαCA ] (VchαCA [1]) | SI [ KI hCA II/KI VchαCA ] (VchαCA [1]) | Ki (VchαCA [2]) | Ki (VchγCA) | growth inhibition against at least one of the clinical isolates [3] | inhibition zone diameter [3] | SI, selectivity with respect to human isoenzymes (VchαCA [1]; VchαCA versus human isoenzymes (abstract))
NS(=O)(=O)c1ccc(N2CCN(Cc3ccccc3)C2=O)cc1 [8c] | 127 µM | 3.1 | 1.2 | 0.0026 µM | 8.1 µM | – | – | –
CCCCNCCNc1ccc(S(N)(=O)=O)cc1 [9a] | 115 µM | 6.8 | 1.0 | 0.0788 µM | – | – | 3–5 mm | –
CCCCNCC(=O)Nc1ccc(S(N)(=O)=O)cc1 [9b] | 141 µM | – | – | 0.0786 µM | – | moderate growth inhibition | – | –
CCCCN1CCN(c2ccc(S(N)(=O)=O)cc2)C1=O [9c] | 113 µM | 128.4 | 90.0 | 0.0047 µM | 54.9 µM | moderate growth inhibition | 3–5 mm | ≥ 90
CC(C)NCCNc1ccc(S(N)(=O)=O)cc1 [10a] | 12.5 µM | 119.5 | 45.0 | 0.0075 µM | 92.9 µM | – | – | –
CC(C)NCC(=O)Nc1ccc(S(N)(=O)=O)cc1 [10b] | 4 µM | 2.5 | 0.7 | 0.0362 µM | 58.3 µM | – | – | –
CC(C)N1CCN(c2ccc(S(N)(=O)=O)cc2)C1=O [10c] | 113 µM | 0.9 | 0.3 | 0.0098 µM | 64.5 µM | – | – | –
NS(=O)(=O)c1cccc(NCCNc2ccccc2)c1 [11a] | 15.6 µM | 0.1 | 0.1 | 0.063 µM | – | moderate growth inhibition | 3–5 mm | –
NS(=O)(=O)c1cccc(NC(=O)CNc2ccccc2)c1 [11b] | 132 µM | 7.5 | 0.6 | 0.0594 µM | – | moderate growth inhibition | – | –
NS(=O)(=O)c1cccc(N2CCN(c3ccccc3)C2=O)c1 [11c] | 100 µM | 1.2 | 0.6 | 0.0503 µM | 6.5 µM | – | – | –
Cc1ccc(NCCNc2cccc(S(N)(=O)=O)c2)cc1 [12a] | 173 µM | – | – | 0.0441 µM | 79 µM | – | – | –
Cc1ccc(NCC(=O)Nc2cccc(S(N)(=O)=O)c2)cc1 [12b] | 121 µM | 1.2 | 0.1 | 0.0731 µM | 9.6 µM | – | – | –
Cc1ccc(N2CCN(c3cccc(S(N)(=O)=O)c3)C2=O)cc1 [12c] | – | – | – | 0.011 µM | 76 µM | – | – | –
NS(=O)(=O)c1cccc(NCCNc2ccc(Cl)cc2)c1 [13a] | 59.2 µM | 4.6 | 0.2 | 0.0756 µM | 5.6 µM | moderate growth inhibition | – | –
NS(=O)(=O)c1cccc(NC(=O)CNc2ccc(Cl)cc2)c1 [13b] | 70.4 µM | 3.6 | 0.4 | 0.0755 µM | – | – | – | –
NS(=O)(=O)c1cccc(N2CCN(c3ccc(Cl)cc3)C2=O)c1 [13c] | 122 µM | 7.6 | 21.0 | 0.004 µM | 73.7 µM | – | – | –
NS(=O)(=O)c1cccc(NCCNc2ccccc2Br)c1 [14a] | 97 µM | 0.1 | 0.1 | 0.0635 µM | – | – | – | –
NS(=O)(=O)c1cccc(NC(=O)CNc2ccccc2Br)c1 [14b] | 16 µM | 0.3 | – | 0.0723 µM | 72.4 µM | – | – | –
NS(=O)(=O)c1cccc(N2CCN(c3ccccc3Br)C2=O)c1 [14c] | 132 µM | 0.8 | 5.4 | 0.01 µM | 81.3 µM | – | – | –
CCCCNCCNc1cccc(S(N)(=O)=O)c1 [15a] | 56.5 µM | 1.9 | 0.5 | 0.0803 µM | 69.3 µM | – | – | –
CCCCNCC(=O)Nc1cccc(S(N)(=O)=O)c1 [15b] | 116 µM | 1.3 | 0.6 | 0.0664 µM | 73.6 µM | – | – | –
CCCCN1CCN(c2cccc(S(N)(=O)=O)c2)C1=O [15c] | 122 µM | 0.8 | 0.2 | 0.047 µM | 8 µM | – | – | –
